# Experimental data taken from patent US4863900A (priority 1987, dated 1989).
# Key:
# HSV1 [1] = test: Virus inactivation, surviving virus by plaque assay on VERO cells; settings: for inactivation of HSV1, temperature effect: 1 hour
# HSV1 [2] = test: Injection of poly-L-histidine treated HSV1 into mice, observed 14 days; assay type: in vivo, Balb/C mice; settings: HSV1 incubated with 100 μg His-75 in 1 ml, pH 6.0, one hour at 37° C., 50 μl in lower left jaw
# Excerpt: 3. All animals were observed daily for 14 days.
# HSV2 = test: Virus inactivation, surviving virus by plaque assay on VERO cells; settings: for Percent Survivors HSV-2: 1 hr at 37° C.
# [3] = system: influenza, Newcastle disease, tobacco mosaic, poliomyelitis, and mumps viruses; settings: cited from earlier work
# [4] = pH 5, 100 μg/ml, 1 hour at 37° C.
# [5] = pH 6, 100 μg/ml, 1 hour at 37° C.
# [6] = pH 7, 100 μg/ml, 1 hour at 37° C.
# [7] = pH 8, 100 μg/ml, 1 hour at 37° C.
# [8] = 100 μg/ml at 37° C., pH 6.0, samples at 1, 15, 30, 45 and 60 minutes
substance,measurement,setting,value
poly-L-Histidine [His-64],inactivation of HSV1,HSV1 [1]; [4],inactivated
same,inactivation of HSV1,HSV1 [1]; [5],inactivated
same,inactivation of HSV1,HSV1 [1]; [6],Some minor inactivation
same,inactivation of HSV1,HSV1 [1]; [7],none
poly-L-Histidine [His-75],health of mice injected with poly-L-histidine treated HSV1,HSV1 [2]; listed as Poly-L-histidine,failed to cause disease
same,health of mice injected with poly-L-histidine treated HSV1,HSV1 [2]; listed as poly-L-histidine,remained healthy throughout the study
same,Percent Survivors HSV-1,"HSV1 [1]; 1 μg/ml, pH 6.0, 1 hr at 37° C.",83%
same,Percent Survivors HSV-1,"HSV1 [1]; 10 μg/ml, pH 6.0, 1 hr at 37° C.",64%
same,length of time required for inactivation of HSV1,HSV1 [1]; [8],inactivated by as little as one minute of exposure
same,Percent Survivors HSV-1,"HSV1 [1]; 100 μg/ml, pH 6.0, 30 minutes, 37° C., not shifted",0%
same,Percent Survivors HSV-1,"HSV1 [1]; 100 μg/ml, pH 6.0, 60 minutes, 37° C., not shifted",0%
same,"inactivation of HSV1, temperature effect","HSV1 [1]; 4° C., 100 μg/ml, pH 6.0",a small amount of HSV1 survived
same,"inactivation of HSV1, temperature effect","HSV1 [1]; 22° C. and 37° C., 100 μg/ml, pH 6.0",inactivation was almost complete
same,ID50 (amount of drug required to inactivate 50% of the virus),"HSV1 [1]; HSV1, pH 6.0, 1 hour at 37° C., linear regression analysis",44.38 µg/mL
same,inactivation of HSV1,HSV1 [1]; [4],efficiently inactivated
same,inactivation of HSV1,HSV1 [1]; [5],efficiently inactivated
same,inactivation of HSV1,HSV1 [1]; [6],not
same,inactivation of HSV,HSV1 [1]; pH 7.2,does not inactivate
same,inactivation of HSV1,HSV1 [1]; [7],not
same,Percent Survivors HSV-2,"HSV2; 1 μg/ml, pH 6.0",62%
same,Percent Survivors HSV-2,"HSV2; 10 μg/ml, pH 6.0",84%
same,length of time required for inactivation of HSV2,HSV2; [8],inactivated by as little as one minute of exposure
same,"inactivation of HSV2, temperature effect","HSV2; 4° C., 22° C. and 37° C., 100 μg/ml, pH 6.0, 1 hour",inactivation was almost complete
same,ID50 (amount of drug required to inactivate 50% of the virus),"HSV2; HSV2, pH 6.0, 1 hour at 37° C., linear regression analysis",41.15 µg/mL
same,inactivation of HSV2,HSV2; [4],inactivated
same,inactivation of HSV2,HSV2; [5],inactivated
same,inactivation of HSV2,HSV2; [6],not
same,inactivation of HSV2,HSV2; [7],not and Some small amount of inactivation
poly-L-arginine,inhibitory activity against viruses,[3],inhibitory activity
poly-L-lysine,inhibitory activity against viruses,[3],inhibitory activity
